In paper doi:10.1101/2021.06.21.449268v1 (biorxiv, 2021):
Like-named read-outs stand apart in the source and are kept apart here.

Key:
[1] = molecular target: T1, human i-20S β5i (Homo sapiens, UniProt P28062); experiment: fluorogenic peptidase assay; type: biochemical; settings: 15 μM Ac-ANW-AMC; 0.4 nM i-20S; 0.02% SDS; pH 7.5; β5i active site
T1 sequence (P28062 73-276): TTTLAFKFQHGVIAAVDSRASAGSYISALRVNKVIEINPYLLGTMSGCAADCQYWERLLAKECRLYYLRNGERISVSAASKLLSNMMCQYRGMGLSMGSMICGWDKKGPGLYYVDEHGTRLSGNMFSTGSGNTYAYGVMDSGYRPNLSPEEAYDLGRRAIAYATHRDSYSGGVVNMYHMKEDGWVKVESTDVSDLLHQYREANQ
T1 sequence (P20618 29-241 partner): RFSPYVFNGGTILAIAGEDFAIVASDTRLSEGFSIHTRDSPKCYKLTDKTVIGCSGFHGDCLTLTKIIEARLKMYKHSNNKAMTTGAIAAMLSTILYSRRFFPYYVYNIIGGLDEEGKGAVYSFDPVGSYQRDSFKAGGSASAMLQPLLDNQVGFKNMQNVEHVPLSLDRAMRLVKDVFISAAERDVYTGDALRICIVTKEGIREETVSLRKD

[2] = molecular target: T2, Pf20S β5 (Plasmodium falciparum, UniProt Q8IJT1); experiment: fluorogenic peptidase assay; type: biochemical
T2 sequence (Q8IJT1 61-271): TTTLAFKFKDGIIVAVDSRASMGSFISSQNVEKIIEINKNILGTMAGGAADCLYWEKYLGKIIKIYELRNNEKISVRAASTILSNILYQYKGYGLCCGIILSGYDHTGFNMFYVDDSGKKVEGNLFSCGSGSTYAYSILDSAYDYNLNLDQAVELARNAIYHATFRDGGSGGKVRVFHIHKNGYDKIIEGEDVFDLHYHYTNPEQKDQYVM
T2 sequence (A0A5K1K7U1 29-240 partner): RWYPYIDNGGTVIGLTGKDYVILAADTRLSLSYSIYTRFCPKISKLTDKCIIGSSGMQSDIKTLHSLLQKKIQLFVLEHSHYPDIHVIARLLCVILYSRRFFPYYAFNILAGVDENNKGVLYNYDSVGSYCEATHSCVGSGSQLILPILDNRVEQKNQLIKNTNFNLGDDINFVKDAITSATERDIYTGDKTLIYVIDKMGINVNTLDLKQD

[3] = molecular target: T3, human c-20S β5c (Homo sapiens, UniProt P28074); experiment: fluorogenic peptidase assay; type: biochemical; settings: 25 μM suc-LLVY-AMC; 0.2 nM c-20S; 0.02% SDS; pH 7.5; β5c active site
T3 sequence (P28074 60-263): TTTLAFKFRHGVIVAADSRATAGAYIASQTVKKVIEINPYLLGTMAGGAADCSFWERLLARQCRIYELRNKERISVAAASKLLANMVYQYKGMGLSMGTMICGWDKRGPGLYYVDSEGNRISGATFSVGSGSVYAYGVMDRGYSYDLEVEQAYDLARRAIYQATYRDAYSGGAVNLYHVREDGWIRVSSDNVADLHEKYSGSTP
T3 sequence (P20618 29-241 partner): T1 sequence (P20618 29-241 partner)

[4] = molecular target: T3, human c-20S β5c; settings: read-out: IC50 (nM) c-20S; inhibitor
[5] = molecular target: T2, Pf20S β5; experiment: biochemical
[6] = molecular target: T1, human i-20S β5i; settings: read-out: IC50 (nM) i-20S; inhibitor
[7] = test system: Plasmodium falciparum Pf3D7; experiment: microbe, parasite or virus in culture; design: species or system P. falciparum 3D7 in human red blood cells; settings: Erythrocyte, read-out: EC50 (nM) Pf3D7

IC50 [4] | Structure (SMILES) | IC50 [1] | IC50 [2] | IC50 [3] | IC50 [5] | IC50 [6] | EC50 [7]
 | C[C@H]1[C@@H](CC(=O)N[C@@H](CC(=O)NC(C)(C)C)C(=O)NCCNC(=O)c2cc(-c3ccccc3F)ccc2F)O[C@@H]2O[C@@]3(C)CC[C@H]4[C@H](C)CC[C@@H]1[C@@]24OO3 [ATZ1] | 0.65 ± 0.094 µM | 0.0632 ± 0.011 µM | 3.6 µM |  |  | 
 | C[C@H]1[C@@H](CC(=O)NCC(=O)N[C@@H](CC(=O)NC(C)(C)C)C(=O)NCCNC(=O)c2cc(-c3ccccc3F)ccc2F)O[C@@H]2O[C@@]3(C)CC[C@H]4[C@H](C)CC[C@@H]1[C@@]24OO3 [ATZ2] | 0.073 ± 0.019 µM |  | 0.21 ± 0.04 µM |  |  | 
 | C[C@H]1[C@@H](CC(=O)NCCC(=O)N[C@@H](CC(=O)NC(C)(C)C)C(=O)NCCNC(=O)c2cc(-c3ccccc3F)ccc2F)O[C@@H]2O[C@@]3(C)CC[C@H]4[C@H](C)CC[C@@H]1[C@@]24OO3 [ATZ3] | 0.26 ± 0.051 µM | 0.0024 ± 0.0004 µM |  |  |  | 
 | C[C@H]1[C@@H](CC(=O)NCCCC(=O)N[C@@H](CC(=O)NC(C)(C)C)C(=O)NCCNC(=O)c2cc(-c3ccccc3F)ccc2F)O[C@@H]2O[C@@]3(C)CC[C@H]4[C@H](C)CC[C@@H]1[C@@]24OO3 [ATZ4] | 0.2 ± 0.057 µM |  | 0.89 ± 0.14 µM |  |  | 
> 100000 nM | C[C@H]1[C@H](OC(=O)CCC(=O)O)O[C@@H]2O[C@@]3(C)CC[C@H]4[C@H](C)CC[C@@H]1[C@@]24OO3 [Artesunate] |  |  |  | > 100 µM | > 100000 nM | 6.2 ± 4 nM
 | CC(C)(C)NC(=O)C[C@H](NC(=O)CCCNC(=O)OC(C)(C)C)C(=O)NCCNC(=O)c1cc(-c2ccccc2F)ccc1F [PI01] | 0.2 ± 0.046 µM |  | 2 µM |  |  | 
 | C[C@H]1[C@H](OC(=O)CCC(=O)N[C@@H](CC(=O)NC(C)(C)C)C(=O)NCCNC(=O)c2cc(-c3ccccc3)ccn2)O[C@@H]2O[C@@]3(C)CC[C@H]4[C@H](C)CC[C@@H]1[C@@]24OO3 [WZ-06, (3R,5aS,6R,8aS,9R,10S,12R,12aR)-3,6,9-trimethyldecahydro-12H-3,12-epoxy[1,2]dioxepino[4,3-i]isochromen-10-yl 4-(((S)-4-(tert-butylamino)-1,4-dioxo-1-((2-(4-phenylpicolinamido)ethyl)amino)butan-2-yl)amino)-4-oxobutanoate] |  |  |  | 0.0135 ± 0.0076 µM | 1100 nM | 3.6 ± 0.01 nM
 | C[C@H]1[C@H](OC(=O)CCC(=O)N[C@@H](CC(=O)NC(C)(C)C)C(=O)NCCNC(=O)c2cc(-c3ccccc3)ccn2)O[C@@H]2O[C@@]3(C)CC[C@H]4[C@H](C)CC[C@@H]1[C@@]24OO3 [WZ-06] |  | 0.006 µM |  |  |  | 
 | C[C@H]1[C@H](OC(=O)CCC(=O)N[C@@H](CC(=O)NC(C)(C)C)C(=O)NCCNC(=O)c2cc(-c3ccccc3F)ccc2F)O[C@@H]2O[C@@]3(C)CC[C@H]4[C@H](C)CC[C@@H]1[C@@]24OO3 [WZ-13] |  | 0.002 µM |  |  |  | 
34300 nM | CC(C)(C)NC(=O)C[C@H](NC(=O)CCC(=O)O)C(=O)NCCNC(=O)c1cc(-c2ccccc2F)ccc1F [WZ-20, (S)-4-((4-(tert-butylamino)-1-((2-(2',4-difluoro-[1,1'-biphenyl]-3-carboxamido)ethyl)amino)-1,4-dioxobutan-2-yl)amino)-4-oxobutanoic acid] |  |  |  | 0.006 ± 5e-06 µM | 3490 nM | 50.8 ± 0.7 nM

Structure (SMILES) | IC50 [4] | IC50 [1] | IC50 [2] | IC50 [3] | IC50 [5] | IC50 [6] | EC50 [7]
C[C@H]1[C@H](OC(=O)CCC(=O)N[C@@H](CC(=O)NC(C)(C)C)C(=O)NCCNC(=O)c2cc(-c3ccccc3F)ccc2F)O[C@@H]2O[C@@]3(C)CC[C@H]4[C@H](C)CC[C@@H]1[C@@]24OO3 [WZ-13, (3R,5aS,6R,8aS,9R,10S,12R,12aR)-3,6,9-trimethyldecahydro-12H-3,12-epoxy[1,2]dioxepino[4,3-i]isochromen-10-yl 4-(((S)-4-(tert-butylamino)-1-((2-(2',4-difluoro-[1,1'-biphenyl]-3-carboxamido)ethyl)amino)-1,4-dioxobutan-2-yl)amino)-4-oxobutanoate] | 440 ± 110 nM |  |  |  | 0.0055 ± 0.0038 µM | 158 ± 50 nM | 2.5 ± 0.7 nM
